# Laboratory results as given in US9550811B2, “Peptide scaffold design” (BIONOR IMMUNO AS, priority 2010, dated 2017).
# Like-named read-outs stand apart in the source and are kept apart here. Where no end group is shown, it is not given here. [ ]: non-standard residue; d: D form. Nle = CCCC[C@H](N)C(=O)O
# How the values were obtained:
# [1] = test system: DC-cells; test: Cell penetration assay: staining for biotinylated peptides, dendritic cells gated as CD11c+; assay type: cell-based, human; settings: low concentration of peptides (208 uM)
# Procedure: A set of peptides were biotinylated on N-terminal, and different combinations of aminoacids, with respect to length and type, were added to the sequence box X^1, X^3 and X^4 in the peptides as illustrated by the diagram below. The peptides were tested on cells grown from one individual blood donor.
# 96-well U-bottom polystyrene plates (NUNC, cat no: 163320) were used for staining of human PBMCs. Briefly, 8 ul of N- or C-terminally biotinylated peptides according to table 1 or table 2 (i.e. 5 mM, 2.5 mM & 1.25 mM tested for each peptide) were incubated at 37° C. for 2 h with 40 ul of PBMC (12.5×10^6 cells/ml) from blood donors. Cells were then washed 3× with 150 ul of Cellwash (BD, cat no: 349524), followed by resuspension of each cell pellet with 100 ul of Trypsin-EDTA (Sigma, cat no: T4424), then incubated at 37° C. for 5 min. Trypsinated cells were then washed 3× with 150 ul of Cellwash (BD, cat no: 349524), followed by resuspension with BD Cytofix/Cytoperm™ plus (BD, cat no: 554715), then incubated at 4° C. for 20 min according to manufacturer. Cells were then washed 2× with 150 ul PermWash (BD, cat no: 554715). Cells were then stained with Streptavidin-APC (BD, cat no: 554067) & Anti-hCD11c (eBioscience, cat no: 12-0116) according to manufacturer at 4° C. for 30 min aiming to visualize biotinylated peptides & dendritic cells, respectively. Cells were then washed 3× with 150 ul PermWash, followed by resuspension in staining buffer (BD, cat no: 554656) before flow cytometry. Dendritic cells were gated as CD11c+ events outside lymphocyte region (i.e. higher FSC & SSC signals than lymphocytes). 200 000 total cells were acquired on a FACSCanto II flow cytometer with HTS loader, and histograms for both total cells & dendritic cells with respect to peptide-fluorescence (i.e. GeoMean) were prepared.
# As shown in table 4 the peptides according to the invention had the ability to allocate through the cell membrane.
# [2] = test system: human PBMCs; assay type: cell-based; settings: for Geomean value (peptide-fluorescence): With Cytofix/Cytoperm and trypsination, BC20
Sequence,Results on DC-cells (geomean peptide-fluorescence) ([1]; BC 16),Results on DC-cells (geomean peptide-fluorescence) ([1]; BC43),other results
BRGLEPLVIAGILARRGSLVGLLHIVL [BI100260],47846,–,–
BRGSDPLVVAASIVRRASIVGILHLIL [BI100260b],37702,–,–
BRGYIPLVGAPLGRRVARALAHGVRV [SP7],16064,21414,Geomean value (peptide-fluorescence) ([2]; concentration 104 μM): 2766; Geomean value (peptide-fluorescence) ([2]; concentration 208 μM): 10481; Geomean value (peptide-fluorescence) ([2]; concentration 417 μM): 30503; Geomean value (peptide-fluorescence) ([2]; concentration 833 μM): 47922
BRGYIPLVGAPLGRRVARALAHGVRV [SP7_c],20041,11832,–
BRIAYERMCNILLBRGKFQTAAQRA [190b],12391,20444,–
BRLIFLARSALILBGRSALILRGSVAHK [120b],44185,–,–
BRLIFLARSALIVRGSVAHKS [100-12],24792,45622,–
BRRLFFKTITRLFBHGLRRLLSTEGVPNSZ [BI10026],65196,43536,–
BRTAYERZCNILBRGRFQTVVQBA [compound 17],–,–,"Intracellular staining, median [2]: 20.77"
BRTAYERZCNILBRGRFQTVVQBA [compound 190],12906,–,–
EDLIFLARSALILRGSVAHKS [100-22b],43537,28780,–
EEGYIPLVGAPLGEEVARALAHGVRV [SP14],3704,1629,Geomean value (peptide-fluorescence) ([2]; concentration 104 μM): 62; Geomean value (peptide-fluorescence) ([2]; concentration 208 μM): 392; Geomean value (peptide-fluorescence) ([2]; concentration 417 μM): 682; Geomean value (peptide-fluorescence) ([2]; concentration 833 μM): 1059
EEGYIPLVGAPLGRRVARALAHGVRV [SP16],5730,3656,Geomean value (peptide-fluorescence) ([2]; concentration 104 μM): 505; Geomean value (peptide-fluorescence) ([2]; concentration 208 μM): 1260; Geomean value (peptide-fluorescence) ([2]; concentration 417 μM): 2240; Geomean value (peptide-fluorescence) ([2]; concentration 833 μM): 4558
GGGQIVGGVYLLPRRGPRLGVRATR [310-11n],5436,–,–
GGGYIPLVGAPLGGGVARALAHGVRV [SP15],5076,2539,Geomean value (peptide-fluorescence) ([2]; concentration 104 μM): 600; Geomean value (peptide-fluorescence) ([2]; concentration 208 μM): 848; Geomean value (peptide-fluorescence) ([2]; concentration 417 μM): 477; Geomean value (peptide-fluorescence) ([2]; concentration 833 μM): 1810
GYIPLVGAPLGGVARALAHGVRV [51n],5551,7721,–
GYIPLVGAPLGGVARALAHGVRV [SP1_C] (GYIPLVGAPLGGVARALAHGVRV-NH2),9234,–,–
IAYERMCNILKGKFQTAAQRA [190n],18616,23383,–
KALGPAATLEEMMTACQGVG [N13],7982,5953,–
KKGYIPLVGAPLGKKVARALAHGVRV [SP11],6490,13230,Geomean value (peptide-fluorescence) ([2]; concentration 104 μM): 601; Geomean value (peptide-fluorescence) ([2]; concentration 208 μM): 1277; Geomean value (peptide-fluorescence) ([2]; concentration 417 μM): 3562; Geomean value (peptide-fluorescence) ([2]; concentration 833 μM): 8262
KKGYIPLVGAPLGKKVARALAHGVRV [SP11_c] (KKGYIPLVGAPLGKKVARALAHGVRV-NH2),5371,7878,–
LFFKCIYRLFKHGLKRGPSTEGVPESM [BI10024b],26892,13002,–
PEVIPMFSALSEGATPQDLNTMLN [N10],4597,–,–
RFIIPXFTALSGGRRALLYGATPYAIG (RFIIP[Nle]FTALSGGRRALLYGATPYAIG) [V10],45430,–,–
RGYIPLVGAPLGKKKVARALAHGVRV [SP9],8356,10084,Geomean value (peptide-fluorescence) ([2]; concentration 104 μM): 1268; Geomean value (peptide-fluorescence) ([2]; concentration 208 μM): 2945; Geomean value (peptide-fluorescence) ([2]; concentration 417 μM): 6060; Geomean value (peptide-fluorescence) ([2]; concentration 833 μM): 11344
RGYIPLVGAPLGKKKVARALAHGVRV [SP9_c] (RGYIPLVGAPLGKKKVARALAHGVRV-NH2),6180,7758,–
RGYIPLVGAPLGRRRVARALAHGVRV [SP4_c],20673,30786,–
RGYIPLVGAPLGRRRVARALAHGVRV [SP10_c] (RGYIPLVGAPLGRRRVARALAHGVRV-NH2),6904,–,–

Sequence,Results on DC-cells (geomean peptide-fluorescence) ([1]; BC 16),Results on DC-cells (geomean peptide-fluorescence) ([1]; BC43),other results
RGYIPLVGAPLGRRVARALAHGVRV [SP3_c] (RGYIPLVGAPLGRRVARALAHGVRV-NH2),18505,26308,–
RGYIPLVGAPLGRRVARALAHGVRV [SP24] (RGYIPLVGAPLGRRVARALAHGVRV-NH2),18181,63639,–
RNIVPZVVTARRNIVPZVVTAB [BI-050sc5],13648,15549,–
RNLVPMVATVBRRNLVPMVATVB [BI-050sc2],6019,11584,–
RNLVPMVATVBRRNLVPMVATVB [compound 18],–,–,"Intracellular staining, median [2]: 3.86"
RNLVPMVATVRRNLVPMVATVB [BI-050sc1],6056,6160,–
RRGGGQIVGGVYLLPRRGPRLGVRATR [310-11-n-sc],25236,–,–
RRGYIPLVGAPLGBGRVARALAHGVRV [SP2_c],323,13341,–
RRGYIPLVGAPLGLRRVARALAHGVRV [SP17_c],11830,–,–
RRGYIPLVGAPLGRRRVARALAHGVRV [SP6_c] (RRGYIPLVGAPLGRRRVARALAHGVRV-NH2),17964,38487,–
RRGYIPLVGAPLGRRVARALAHGVRV [SP5_c] (RRGYIPLVGAPLGRRVARALAHGVRV-NH2),16908,24403,–
RRNYVTGNIPGBRGITFSIFLIVS [SP61_2],128330,150491,–
RRRGYIPLVGAPLGBRVARALAHGVRV [SP8_c],9159,23763,–
RRVTGNIPGSTYSGBRGITFSIYLIVS [SP25],11552,–,–
SAYERMCNILKGKFQTAAQRAMM [18b],29740,33597,–
WGYIPLVGAPLGRRVARALAHGVRV [SP12_c] (WGYIPLVGAPLGRRVARALAHGVRV-NH2),37100,43386,–
WWGGGQIVGGVYLLPRRGPRLGVRAT [SP11b_1],64047,–,–
WWGYIPLVGAPLGRRRVARALAHGVRV [SP22],61597,18624,–
WWGYIPLVGAPLGRRVARALAHGVRV [SP13_c] (WWGYIPLVGAPLGRRVARALAHGVRV-NH2),–,60307,–
WWGYIPLVGAPLGRRVARALAHGVRV [SP21] (WWGYIPLVGAPLGRRVARALAHGVRV-NH2),26525,4294,–
WWGYIPLVGAPLGRVARALAHGVRV [SP23],17084,12801,–
WWGYLPAVGAPIRRVIRVIAHGLRL [SP51_1*],66582,–,–
WWIRNLGRVIETLTRRLZGYIPLIGA [SP42_1],73973,–,–
WWNYVTGNIPGBRGITFSIFLIVS [SP61_3],47182,36803,–
WWNYVTGNIPGRRGITFSIFLIVS [SP61_4],12829,–,–
WWSRNLGKVIDTLTCRRLMGYIPLVGA [SP42b_1],17628,–,–
"YGRKKRRQRRR [compound 4, Positive control (tat), reference compound]",–,–,"Intracellular staining, median [2]: 4.43"
